One assay deals with HUVEC cell. As to the kind of experiment: Cell Proliferation Inhibition VEGF-R2 Assay (SRB method). Format: cell-based, homo sapient. As to conditions: Homo sapiens; HUVEC cells, 72 hours exposure, Sulforhodamine B; read-out: IC50 (VEGFR/HUVEC). The source says: The following in vitro assay may be used to determine the level of activity and effect of different compounds of the present invention on the proliferation inhibition (cell toxic) of endothelium growth factor receptor (VEGFR) high expressing homo […] cancer cell-HUVEC cell. The cellular assay described here measure the compounds of their anti-angiogenesis and proliferation inhibition activity and effect through […] on the cancer cells in vitro. The effect and activity is represented by the IC50 value that kills the cancer cell. […] The homo […] highly express […] are chosen and seeded to 96-well cell culture plate at a suitable concentration (exp 5000 cells/ml medium). The cells then are cultured in carbon dioxide (CO2) incubator till when they confluence to about 85%. Then, the cell culture medium is replaced by fresh one with tested compounds added in it at serial concentrations (general 6 to 7 concentrations). Then the cells are put back to the culture and cultured for continuous 72 hours. 72 hours later, the cell exposed to compounds and control cell are assayed for their proliferation using Sulforhodamine B (SRB) method. […] Dimethyl sulfoxide (Sinophma chemical reagent company, catalog No. T20050806) • b. HUVEC cells (Purchased from Institute of biochemistry and cell biology) • c. […] Acetic Acid (Sinophma chemical reagent company, Catalog No. T20060508) • l. Trichloroacetic Acid (Sinophma chemical reagent company, Catalog No. T20060305) • m. […] Class II A/B3 Biological safety cabinet (ThermoForma Catalog No. HB0053-03) • o. […] Centrifuge (Fisher Scientific Marathon 8 k, Catalog No. 0027-02) • q. Novastar Plate reader (BMG Labtech, Catalog No. 700-0081) • r. […] Growing seeded 96-well plates at 37° C., 5% CO2, till 85% confluence. • 4. Prepare compounds stock solution, using DMSO solve candidate compounds to a concentration of 20 mM. […] Use cell culture medium (in this case, DMEM/F12+10% FBS) to dilute the compounds solution prepared above. Each DMSO serial concentration compound solution is diluted by 20 times with culture medium by adding 5 μl DMSO compound solution to 95 μl culture medium, then mix well by vortex. […] After HUVEC cell has attached to the dish bottom and confluence about 85%, change the culture medium with fresh DMEM/F12 plus 10% FBS. Each well added 180 μl medium, then add 20 μl medium solution of tested compounds prepared at step 5 to each well. For control group cell, add 20 μl culture medium containing 0.5% pure DMSO. […] Each 96-well plate, we can test 3 compounds with a control cell group. • 7. Put the culture plates back to incubator, culture for 72 hours at 37° C., 5% CO2. • 8. 72 hours later, remove cultures from incubator into sterile work area. • 9. Prepare fixative (50% Trichloroacetic Acid-TCA) by adding reagent grade water to the TCA, fix the cells by gently layering 50 μl of cold TCA solution on top of the growth medium. • 10. Incubate plates for 1 hour at 4° C. and then rinse with water several times to remove TCA, serum proteins, etc. Plates are air dried and stored until use. Bland background optical density is measured in wells incubated with growth medium without cells. • 11. Use 10% acetic acid solution to prepare 0.4% Sulforhodamine B solution. Add 50 μl sulforhodamine B solution to each well of 96-well plates. • 12. Allow cells to stain for 30 minutes. • 13. Prepared the wash solution of […] acetic acid. At the end of the staining period, the stain is removed and the cells rinsed quickly with 1% acetic acid. Repeat until unincorporated dye is removed. Keep wash times to a minimum to reduce desorption of protein-bound dye. After being rinsed, the cultures are air dried until no moisture is visible. • 14. The incorporated dye is then solubilized in a volume of Sulforhodamine B assay Solubilization solution (10 mM Tris) equal to the original volume of culture medium. Allow cultures to stand for 5 minutes at room temperature.
In general terms: Sulforhodamine B stains cellular protein and so reports cell mass.

In the next assay the test system is A431 cell. As to the kind of experiment: Cell Proliferation Inhibition EGFR Assay (SRB method). Type of assay: cell-based, homo sapient. The note with it: Homo sapiens, A-431; A431 cells, 72 hours exposure, Sulforhodamine B; read-out: IC50 (A431). The source says:
The following in vitro assay may be used to determine the level of activity and effect of different compounds of the present invention on the proliferation inhibition (cell toxic) of […] growth factor receptor (EGFR) high expressing homo […] cancer cell-A431 cell. The cellular assay described here measure the compounds of their anti-angiogenesis and proliferation inhibition activity and effect through EGFR on the cancer cells in vitro. The effect and activity is represented by the IC50 value that kills the cancer cell. […] The homo […] highly express EGFR are chosen and seeded to 96-well cell culture plate at a suitable concentration (exp 5000 cells/ml medium). The cells then are cultured in carbon dioxide (CO2) incubator till when they confluence to about 85%. Then, the cell culture medium is replaced by fresh one with tested compounds added in it at serial concentrations (general 6 to 7 concentrations). Then the cells are put back to the culture and cultured for continuous 72 hours. 72 hours later, the cell exposed to compounds and control cell are assayed for their proliferation using Sulforhodamine B (SRB) method. Compounds IC50 on tested cells are calculated by the data of inhibition rates of serial concentrations of the tested compounds. • a. Dimethyl sulfoxide (Sinophma chemical reagent company, catalog No. T20050806) • b. A431 cells (Purchased from Institute of biochemistry and cell biology) • c. Falcon 100 mm cell culture plates (Baton Dickison Labware, Baton Dickison and company, • Catalog No. 18677) • d. coming 96-well culture cluster (Corning Incorporated, Catalog No. 3599) • e. Fisher Pipette (Fisher scientific, Catalog No. 03-692-164) • f. DMEM/F12 cell medium (Gibco, Catalog No. 12400-024) • g. Fetal bovine serum, origin from Australia (Gibco, Catalog No. 10099-141) • h. […] Sulforhodamine B (Sigma, Catalog No. 3520-42-1) • k. Acetic Acid (Sinophma chemical reagent company, Catalog No. T20060508) • l. Trichloroacetic Acid (Sinophma chemical reagent company, Catalog No. T20060305) • m. Tris base (Amresco, Catalog No. 0826) • n. Class II A/B3 Biological safety cabinet (ThermoForma Catalog No. HB0053 03) • o. Series II water jacketed CO2 incubator (ThermoForma Model: 3111) • p. Centrifuge (Fisher Scientific Marathon 8 k, Catalog No. 0027-02) • q. Novastar Plate reader (BMG Labtech, Catalog No. 700 0081) • r. Orbital Shaker (Qilinbeier, Catalog No. TS-1) Protocol: […] Growing seeded 96-well plates at 37° C., 5% CO2, till 85% confluence. • 4. Prepare compounds stock solution, using DMSO solve candidate compounds to a concentration of 20 mM. […] Use cell culture medium (in this case, DMEM/F12+10% FBS) to dilute the compounds solution prepared above. Each DMSO serial concentration compound solution is diluted by 20 times with culture medium by adding 5 μl DMSO compound solution to 95 μl culture medium, then mix well by vortex. This promise that the DMSO concentration at that the A431 cell will exposed to will not surpass 0.5%. • 6. […] Each well added 180 μl medium, then add 20 μl medium solution of tested compounds prepared at step 5 to each well. For control group cell, add 20 μl culture medium containing 0.5% pure DMSO. […] Each 96-well plate, we can test 3 compounds with a control cell group. • 7. Put the culture plates back to incubator, culture for 72 hours at 37° C., 5% CO2. • 8. 72 hours later, remove cultures from incubator into sterile work area. • 9. Prepare fixative (50% Trichloroacetic Acid-TCA) by adding reagent grade water to the TCA, fix the cells by gently layering […] of cold TCA solution on top of the growth medium. • 10. Incubate plates for 1 hour at 4° C. and then rinse with water several times to remove TCA, serum proteins, etc. Plates are air dried and stored until use. Bland background optical density is measured in wells incubated with growth medium without cells. • 11. Use 10% acetic acid solution to prepare 0.4% Sulforhodamine B solution. Add 50 μl sulforhodamine B solution to each well of 96-well plates. • 12. […]

pIC50: −log10 of the molar value.

For `CCN(CC)CCN1CCc2[nH]c(/C=C3\C(=O)Nc4c(N)cc(F)cc43)c(C)c2C1=O` [Example 4], the pIC50 is 5.44 with HUVEC cell and 4.90 in the assay with A431 cell.

On to `CCN(CC)CCN1CCc2[nH]c(/C=C3\C(=O)Nc4c(NC=O)cc(F)cc43)c(C)c2C1=O` [Example 5, N-{3-[5-(2-Diethylamino-ethyl)-3-methyl-4-oxo-4,5,6,7-tetrahydro-1H-pyrrolo[3,2-c]pyridine-2-ylmethylene]-5-fluoro-2-oxo-2,3-dihydro-1H-indol-7-yl}-formamide], for which the results for the pIC50 in the assay on HUVEC cell and in the assay with A431 cell were 4.98 and 5.86, respectively.

Regarding `CCN(CC)CCN1CCc2[nH]c(/C=C3\C(=O)Nc4cc(N)c(F)cc43)c(C)c2C1=O` [Example 7, 2-(6-Amino-5-fluoro-2-oxo-1,2-dihydro-indol-3-ylidenemethyl)-5-(2-diethylamino-ethyl)-3-methyl-1,5,6,7-tetrahydro-pyrrolo[3,2-c]pyridin-4-one], the pIC50 was 5.86 with HUVEC cell and 4.98 in the assay on A431 cell.

Take `CCN(CC)CCN1CCc2[nH]c(/C=C3\C(=O)Nc4cc(NC=O)c(F)cc43)c(C)c2C1=O` [Example 8, N-{3-[5-(2-Diethylamino-ethyl)-3-methyl-4-oxo-4,5,6,7-tetrahydro-1H-pyrrolo[3,2-c]pyridine-2-ylmethylene]-5-fluoro-2-oxo-2,3-dihydro-1,1-indol-6-yl}-formamide]: the figures for the pIC50 in the assay on HUVEC cell and in the assay on A431 cell were 5.50 and 6.43, respectively.

Take `CCN(CC)CCN1CCc2[nH]c(/C=C3\C(=O)Nc4cc(NC(C)=O)c(F)cc43)c(C)c2C1=O` [Example 9, N-{3-[5-(2-Diethylamino-ethyl)-3-methyl-4-oxo-4,5,6,7-tetrahydro-pyrrolo[3,2-c]pyridine-2-ylmethylene]-5-fluoro-2-oxo-2,3-dihydro-1H-indol-6-yl}-acetamide]: the pIC50 with HUVEC cell is 5.24; in the assay on A431 cell, 5.03.

On to `Cc1c(/C=C2\C(=O)Nc3cc(N)c(F)cc32)[nH]c2c1C(=O)N(CCN1CCCC1)CC2` [Example 14, 2-(6-Amino-5-fluoro-2-oxo-1,2-dihydro-indol-3-ylidenemethyl)-3-methyl-5-(2-pyrrolidin-1-yl-ethyl)-1,5,6,7-tetrahydro-pyrrolo[3,2-c]pyridin-4-one], for which the pIC50 in the assay with HUVEC cell was 5.98; in the assay with A431 cell it was 4.97.

Turning to `CCN(CC)CCN1CCc2[nH]c(/C=C3\C(=O)Nc4ccc(NC=O)cc43)c(C)c2C1=O` [Example 33, N-{3-[5-(2-Diethylamino-ethyl)-3-methyl-4-oxo-4,5,6,7-tetrahydro-1H-pyrrolo[3,2-c]pyridine-2-ylmethylene]-2-oxo-2,3-dihydro-1H-indol-5-yl}-formamide], the pIC50 with HUVEC cell is 6.17; with A431 cell it was 6.08.

In the case of `CCN(CC)CCN1CCc2[nH]c(/C=C3\C(=O)Nc4ccc(-c5ccc(OC)cc5)cc43)c(C)c2C1=O` [Example 38, 5-(2-Diethylamino-ethyl)-2-[5-(4-methoxy-phenyl)-2-oxo-1,2-dihydro-indol-3-ylidenemethyl)-3-methyl-1,5,6,7-tetrahydro-pyrrolo[3,2-c]pyridin-4-one], the pIC50 with HUVEC cell is 5.89; in the assay on A431 cell, 5.41.
